Numbers after ± are expanded uncertainties.
Conditions: Liquid, Hot wire method

SMILES: FC(F)CC(F)(F)F [1,1,1,3,3-pentafluoropropane]
- thermal conductivity (323.16 K, 330 kPa): 0.08023 ± 0.001 W/m/K
- thermal conductivity (323.16 K, 19684 kPa): 0.09037 ± 0.0012 W/m/K
- thermal conductivity (323.16 K, 19687 kPa): 0.09046 ± 0.0012 W/m/K
- thermal conductivity (323.23 K, 13828 kPa): 0.0878 ± 0.0011 W/m/K
- thermal conductivity (323.23 K, 13836 kPa): 0.08777 ± 0.0011 W/m/K
- thermal conductivity (323.31 K, 8785 kPa): 0.08509 ± 0.0011 W/m/K
- thermal conductivity (323.31 K, 8786 kPa): 0.08508 ± 0.0011 W/m/K
- thermal conductivity (323.33 K, 69855 kPa): 0.1079 ± 0.0014 W/m/K
- thermal conductivity (323.33 K, 69859 kPa): 0.1079 ± 0.0014 W/m/K
- thermal conductivity (323.4 K, 58551 kPa): 0.1046 ± 0.0013 W/m/K
- thermal conductivity (323.41 K, 58550 kPa): 0.1047 ± 0.0013 W/m/K
- thermal conductivity (323.46 K, 49806 kPa): 0.1018 ± 0.0013 W/m/K
- thermal conductivity (323.46 K, 49813 kPa): 0.1019 ± 0.0013 W/m/K
- thermal conductivity (323.52 K, 40518 kPa): 0.09873 ± 0.0013 W/m/K
- thermal conductivity (323.52 K, 40523 kPa): 0.09883 ± 0.0013 W/m/K
- thermal conductivity (323.56 K, 33191 kPa): 0.09593 ± 0.0012 W/m/K
- thermal conductivity (323.57 K, 33190 kPa): 0.0959 ± 0.0012 W/m/K
- thermal conductivity (323.65 K, 26145 kPa): 0.09305 ± 0.0012 W/m/K
- thermal conductivity (323.65 K, 26148 kPa): 0.09303 ± 0.0012 W/m/K
- thermal conductivity (323.66 K, 4345 kPa): 0.08263 ± 0.0011 W/m/K
- thermal conductivity (323.67 K, 4353 kPa): 0.08281 ± 0.0011 W/m/K
- thermal conductivity (323.71 K, 19685 kPa): 0.09038 ± 0.0012 W/m/K
- thermal conductivity (323.72 K, 19683 kPa): 0.09025 ± 0.0012 W/m/K
- thermal conductivity (323.74 K, 330 kPa): 0.08004 ± 0.001 W/m/K
- thermal conductivity (323.74 K, 331 kPa): 0.08014 ± 0.001 W/m/K
- thermal conductivity (323.8 K, 13825 kPa): 0.08771 ± 0.0011 W/m/K
- thermal conductivity (323.8 K, 13826 kPa): 0.08762 ± 0.0011 W/m/K
- thermal conductivity (323.88 K, 8784 kPa): 0.08522 ± 0.0011 W/m/K
- thermal conductivity (323.89 K, 8785 kPa): 0.08516 ± 0.0011 W/m/K
- thermal conductivity (341.35 K, 31717 kPa): 0.09048 ± 0.0012 W/m/K
- thermal conductivity (341.36 K, 791 kPa): 0.07387 ± 0.00096 W/m/K
- thermal conductivity (341.36 K, 807 kPa): 0.07373 ± 0.00095 W/m/K
- thermal conductivity (341.36 K, 31723 kPa): 0.09099 ± 0.0012 W/m/K
- thermal conductivity (341.37 K, 4061 kPa): 0.07637 ± 0.00099 W/m/K
- thermal conductivity (341.37 K, 4066 kPa): 0.07637 ± 0.00099 W/m/K
- thermal conductivity (341.37 K, 8227 kPa): 0.07909 ± 0.001 W/m/K
- thermal conductivity (341.38 K, 8222 kPa): 0.07861 ± 0.001 W/m/K
- thermal conductivity (341.39 K, 12846 kPa): 0.08132 ± 0.001 W/m/K
- thermal conductivity (341.4 K, 12858 kPa): 0.08189 ± 0.001 W/m/K
- thermal conductivity (341.41 K, 18251 kPa): 0.08455 ± 0.0011 W/m/K
- thermal conductivity (341.42 K, 18258 kPa): 0.08459 ± 0.0011 W/m/K
- thermal conductivity (341.43 K, 24450 kPa): 0.08726 ± 0.0011 W/m/K
- thermal conductivity (341.44 K, 24457 kPa): 0.08772 ± 0.0011 W/m/K
- thermal conductivity (341.44 K, 39673 kPa): 0.09407 ± 0.0012 W/m/K
- thermal conductivity (341.44 K, 39675 kPa): 0.0951 ± 0.0012 W/m/K
- thermal conductivity (341.65 K, 48504 kPa): 0.09719 ± 0.0012 W/m/K
- thermal conductivity (341.66 K, 48505 kPa): 0.09738 ± 0.0012 W/m/K
- thermal conductivity (341.69 K, 58414 kPa): 0.1006 ± 0.0013 W/m/K
- thermal conductivity (341.71 K, 58417 kPa): 0.101 ± 0.0013 W/m/K
- thermal conductivity (341.73 K, 69248 kPa): 0.1039 ± 0.0013 W/m/K
- thermal conductivity (341.75 K, 69269 kPa): 0.1038 ± 0.0013 W/m/K
- thermal conductivity (341.77 K, 31709 kPa): 0.09087 ± 0.0012 W/m/K
- thermal conductivity (341.77 K, 31711 kPa): 0.09067 ± 0.0012 W/m/K
- thermal conductivity (341.79 K, 800 kPa): 0.07352 ± 0.00095 W/m/K
- thermal conductivity (341.79 K, 8213 kPa): 0.07901 ± 0.001 W/m/K
- thermal conductivity (341.79 K, 8220 kPa): 0.07915 ± 0.001 W/m/K
- thermal conductivity (341.8 K, 798 kPa): 0.074 ± 0.00096 W/m/K
- thermal conductivity (341.8 K, 4049 kPa): 0.07607 ± 0.00098 W/m/K
- thermal conductivity (341.8 K, 4060 kPa): 0.07627 ± 0.00099 W/m/K
- thermal conductivity (341.8 K, 12862 kPa): 0.08133 ± 0.001 W/m/K
- thermal conductivity (341.8 K, 18252 kPa): 0.08459 ± 0.0011 W/m/K
- thermal conductivity (341.8 K, 18254 kPa): 0.0841 ± 0.0011 W/m/K
- thermal conductivity (341.81 K, 12851 kPa): 0.08125 ± 0.001 W/m/K
- thermal conductivity (341.81 K, 24448 kPa): 0.08731 ± 0.0011 W/m/K
- thermal conductivity (341.81 K, 24452 kPa): 0.08759 ± 0.0011 W/m/K
- thermal conductivity (341.83 K, 39657 kPa): 0.09382 ± 0.0012 W/m/K
- thermal conductivity (341.83 K, 39667 kPa): 0.09362 ± 0.0012 W/m/K
- thermal conductivity (342.05 K, 48492 kPa): 0.09719 ± 0.0012 W/m/K
- thermal conductivity (342.06 K, 48492 kPa): 0.09719 ± 0.0012 W/m/K
- thermal conductivity (342.09 K, 58399 kPa): 0.1006 ± 0.0013 W/m/K
- thermal conductivity (342.1 K, 58406 kPa): 0.1005 ± 0.0013 W/m/K
- thermal conductivity (342.12 K, 69235 kPa): 0.1042 ± 0.0013 W/m/K
- thermal conductivity (342.12 K, 69238 kPa): 0.104 ± 0.0013 W/m/K
- thermal conductivity (342.21 K, 31695 kPa): 0.09091 ± 0.0012 W/m/K
- thermal conductivity (342.23 K, 24443 kPa): 0.08756 ± 0.0011 W/m/K
- thermal conductivity (342.23 K, 31701 kPa): 0.09082 ± 0.0012 W/m/K
- thermal conductivity (342.24 K, 18254 kPa): 0.08456 ± 0.0011 W/m/K
- thermal conductivity (342.24 K, 18263 kPa): 0.08459 ± 0.0011 W/m/K
- thermal conductivity (342.24 K, 24457 kPa): 0.08773 ± 0.0011 W/m/K
- thermal conductivity (342.25 K, 8211 kPa): 0.079 ± 0.001 W/m/K
- thermal conductivity (342.25 K, 8213 kPa): 0.0788 ± 0.001 W/m/K
- thermal conductivity (342.25 K, 12847 kPa): 0.08139 ± 0.001 W/m/K
- thermal conductivity (342.26 K, 12846 kPa): 0.08139 ± 0.001 W/m/K
- thermal conductivity (342.27 K, 4048 kPa): 0.07633 ± 0.00099 W/m/K
- thermal conductivity (342.27 K, 39655 kPa): 0.09411 ± 0.0012 W/m/K
- thermal conductivity (342.28 K, 795 kPa): 0.07417 ± 0.00096 W/m/K
- thermal conductivity (342.28 K, 4064 kPa): 0.07591 ± 0.00098 W/m/K
- thermal conductivity (342.28 K, 39659 kPa): 0.09393 ± 0.0012 W/m/K
- thermal conductivity (342.29 K, 784 kPa): 0.07414 ± 0.00096 W/m/K
- thermal conductivity (342.49 K, 48484 kPa): 0.09716 ± 0.0012 W/m/K
- thermal conductivity (342.51 K, 48493 kPa): 0.09719 ± 0.0012 W/m/K
- thermal conductivity (342.51 K, 58384 kPa): 0.1004 ± 0.0013 W/m/K
- thermal conductivity (342.53 K, 58390 kPa): 0.1005 ± 0.0013 W/m/K
- thermal conductivity (342.53 K, 69205 kPa): 0.104 ± 0.0013 W/m/K
- thermal conductivity (342.54 K, 69218 kPa): 0.1038 ± 0.0013 W/m/K
- thermal conductivity (342.7 K, 24435 kPa): 0.08753 ± 0.0011 W/m/K
- thermal conductivity (342.71 K, 18288 kPa): 0.08467 ± 0.0011 W/m/K
- thermal conductivity (342.71 K, 24437 kPa): 0.08761 ± 0.0011 W/m/K
- thermal conductivity (342.72 K, 31697 kPa): 0.09082 ± 0.0012 W/m/K
- thermal conductivity (342.72 K, 31698 kPa): 0.09091 ± 0.0012 W/m/K
- thermal conductivity (342.73 K, 18277 kPa): 0.08453 ± 0.0011 W/m/K
- thermal conductivity (342.74 K, 12836 kPa): 0.08165 ± 0.001 W/m/K
- thermal conductivity (342.75 K, 12854 kPa): 0.08161 ± 0.001 W/m/K
- thermal conductivity (342.75 K, 39640 kPa): 0.09416 ± 0.0012 W/m/K
- thermal conductivity (342.75 K, 39649 kPa): 0.09419 ± 0.0012 W/m/K
- thermal conductivity (342.77 K, 8198 kPa): 0.07878 ± 0.001 W/m/K
- thermal conductivity (342.77 K, 8214 kPa): 0.07886 ± 0.001 W/m/K
- thermal conductivity (342.8 K, 4060 kPa): 0.07628 ± 0.00099 W/m/K
- thermal conductivity (342.81 K, 4048 kPa): 0.07623 ± 0.00099 W/m/K
- thermal conductivity (342.82 K, 778 kPa): 0.074 ± 0.00096 W/m/K
- thermal conductivity (342.83 K, 779 kPa): 0.07358 ± 0.00095 W/m/K
- thermal conductivity (342.98 K, 48479 kPa): 0.09746 ± 0.0013 W/m/K
- thermal conductivity (342.99 K, 48476 kPa): 0.09717 ± 0.0012 W/m/K
- thermal conductivity (342.99 K, 58371 kPa): 0.1007 ± 0.0013 W/m/K
- thermal conductivity (342.99 K, 69188 kPa): 0.1043 ± 0.0013 W/m/K
- thermal conductivity (342.99 K, 69203 kPa): 0.1043 ± 0.0013 W/m/K
- thermal conductivity (343 K, 58374 kPa): 0.1007 ± 0.0013 W/m/K
- thermal conductivity (343.21 K, 24431 kPa): 0.0874 ± 0.0011 W/m/K
- thermal conductivity (343.22 K, 24434 kPa): 0.0876 ± 0.0011 W/m/K
- thermal conductivity (343.25 K, 18297 kPa): 0.0846 ± 0.0011 W/m/K
- thermal conductivity (343.25 K, 18305 kPa): 0.08481 ± 0.0011 W/m/K
- thermal conductivity (343.25 K, 31683 kPa): 0.09097 ± 0.0012 W/m/K
- thermal conductivity (343.25 K, 31692 kPa): 0.09092 ± 0.0012 W/m/K
- thermal conductivity (343.27 K, 39640 kPa): 0.09411 ± 0.0012 W/m/K
- thermal conductivity (343.28 K, 39648 kPa): 0.09409 ± 0.0012 W/m/K
- thermal conductivity (343.29 K, 12856 kPa): 0.08212 ± 0.0011 W/m/K
- thermal conductivity (343.3 K, 12844 kPa): 0.08186 ± 0.001 W/m/K
- thermal conductivity (343.33 K, 8193 kPa): 0.07913 ± 0.001 W/m/K
- thermal conductivity (343.33 K, 8208 kPa): 0.07905 ± 0.001 W/m/K
- thermal conductivity (343.38 K, 4043 kPa): 0.07572 ± 0.00098 W/m/K
- thermal conductivity (343.39 K, 4045 kPa): 0.07592 ± 0.00098 W/m/K
- thermal conductivity (343.42 K, 777 kPa): 0.07373 ± 0.00095 W/m/K
- thermal conductivity (343.43 K, 791 kPa): 0.07347 ± 0.00095 W/m/K
- thermal conductivity (343.48 K, 69162 kPa): 0.1043 ± 0.0013 W/m/K
- thermal conductivity (343.49 K, 69172 kPa): 0.1045 ± 0.0013 W/m/K
- thermal conductivity (343.5 K, 48465 kPa): 0.09758 ± 0.0013 W/m/K
- thermal conductivity (343.5 K, 58358 kPa): 0.1009 ± 0.0013 W/m/K
- thermal conductivity (343.5 K, 58363 kPa): 0.1009 ± 0.0013 W/m/K
- thermal conductivity (343.51 K, 48479 kPa): 0.0974 ± 0.0012 W/m/K

From the NIST ThermoML archive (doi:10.1021/acs.jced.6b00350)
